Reference: patent US9187506B2 (Bristol-Meyers Squibb Company, priority 2014, dated 2015)
Read-outs that look alike come from different tables or passages of the source.

How the values were obtained:
hERG channels = target: T1, hERG channels (Homo sapiens, UniProt Q12809); experiment: hERG electrophysiology assay (patch clamp, HEK 293 cells); type: cell-based; conditions: HEK 293 cells stably expressing hERG, patch clamp tail current
T1 construct: expressed in transfected cells
Procedure: The experimental compounds were assessed for hERG activity on HEK 293 cells stably expressing hERG channels using patch clamp technique. Coverslips plated with hERG expressing cells were placed in the experimental chamber and were perfused with a solution composed of (in mM): 140 NaCl, 4 KCl, 1.8 CaCl2, 1 MgCl2, 10 Glucose, 10 HEPES (pH 7.4, NaOH) at room temperature. Borosilicate patch pipettes had tip resistances of 2-4 Mohms when filled with an internal solution containing 130 KCl, 1 MgCl2, 1 CaCl2, 10 EGTA, 10 HEPES, 5 ATP-K2 (pH 7.2, KOH). The cells were clamped at −80 mV in whole cell configuration using an Axopatch 200B (Axon instruments, Union City, Calif.) patch clamp amplifier controlled by pClamp (Axon instruments) software. Upon formation of a gigaseal, the following voltage protocol was repeatedly (0.05 Hz) applied to record tail currents: depolarization step from −80 mV to +20 mV for 2 seconds followed by a hyperpolarization step to −65 mV (3 seconds) to elicit tail currents and then, back to the holding potential. […] First, tail currents were recorded in presence of extracellular solution alone (control) and subsequently, in extracellular solution containing increasing compound concentrations. […] The percentage inhibition at each concentration was calculated as reduction in peak tail current with respect to the peak tail current recorded in the presence of control solution. […]

mice = experiment: Mouse forced swim test (mFST); type: in vivo; conditions: 1 mg/Kg i.v., 15 min before 6 min swim session
Procedure: Forced Swim Test (FST) is an animal model used to assess antidepressant compounds in preclinical studies. The FST was performed similar to the method of Porsolt et al. with modifications (Porsolt R D, Bertin A, Jalfre M. Behavioral despair in mice: a primary screening test for antidepressants. Arch Int Pharmacodyn Thér 1977; 229:327-36). In this paradigm, mice are forced to swim in an inescapable cylinder filled with water. Under these conditions, mice will initially try to escape and eventually develop immobility behavior; this behavior is interpreted as a passive stress-coping strategy or depression-like behavior. Swim tanks were positioned inside a box made of plastic. Each tank was separated from each other by opaque plastic sheets to the height of cylinders. Three mice were subjected to test at a time. Swim sessions were conducted for 6 min by placing mice in individual glass cylinders (46 cm height×20 cm diameter) containing water (20-cm deep, maintained at 24-25° C.). […] The duration of immobility was evaluated during the total 6 min of the test and expressed as duration (sec) of immobility. […] For NCE testing: Test compound was administered in mice 15 min before swim session by i.v. route and immobility time was recorded for next 6 min. […] The NR2B receptor occupancy was determined as reported above and was determined to be 73%. […] The NR2B receptor occupancy was determined to be 79%.

NR2B-subtype receptors = target: T2, NR2B-subtype receptors (Mus musculus, UniProt P35438+Q01097); experiment: Ex vivo occupancy assay; type: in vivo; conditions: iv; for receptor occupancy at 3 mg/kg: CD-1 mice, 3 mg/Kg i.v., forebrain harvested 15 minutes post-dosing; for receptor occupancy at 1 mg/kg: mice, 1 mg/Kg i.v., after forced swim test
T2 construct: from tissue; host or cells: forebrain membrane homogenate of dosed CD-1 mice
Procedure: (§1) 7-9 weeks old male CD-1 mice were dosed intravenously in a vehicle consisting of 10% dimethylacetamide, 40% PEG-400, 30% hydroxypropyl betacyclodextrin, and 30% water with experimental compounds and the forebrains were harvested 15 minutes post-dosing by decapitation. The brain samples were immediately snap-frozen and stored at −80° C. On the following day, the dosed brain samples were thawed on ice for 15-20 minutes followed by homogenization using Polytron for 10 seconds in cold homogenization buffer composed of 50 mM KH2PO4 (pH adjusted to 7.4 with KOH), 1 mM EDTA, 0.005% Triton X 100 and protease inhibitor cocktail (Sigma Aldrich). The crude homogenates were further homogenized using a Dounce homogenizer and the homogenized membrane aliquots from all animals were flash-frozen and stored at −80° C. until further use. The whole homogenization process was performed on ice.
For determining occupancy, the membrane homogenates were first thawed on ice and then needle-homogenized using a 25 gauge needle. The homogenized membrane (6.4 mg/ml) was added to a 96-well plate followed by addition of ^3H Ro 25-6981 (6 nM). The reaction mixture was incubated for 5 minutes on a shaker at 4° C. and then harvested onto GF/B filter plates (treated with 0.5% PEI for 1 hr at room temperature). The filter plates were dried at 50° C. for 20 mins, incubated with microscint 20 for 10 minutes and read on TopCount (Perkin Elmer). Each dose or compound group consisted of 4-5 animals. The control group of animals was dosed with vehicle alone. Membrane from each animal was added in triplicates to the assay plate. Non-specific binding was determined using 10 μM Ro 25-6981 added to the wells containing membrane homogenates from vehicle-dosed animals. Specific counts/minute was converted to % occupancy at each dose of a compound for each animal using the following equation:
(§2) [formula] […] Drug levels were determined by mass spectroscopy in the usual manner. Drug levels in the blood plasma were 1106 nM in at this dose, and drug levels in the homogonized brain tissue were 1984 nM. […] Drug levels in the blood plasma were 1800 nM in at this dose, and drug levels in the homogonized brain tissue were 2200 nM. […] Drug levels in the blood plasma were 570 nM at this dose, and drug levels in the homogonized brain tissue were 900 nM.

[1] = Drug levels in plasma and brain after mouse forced swim test; type: in vivo; conditions: iv, mice, 1 mg/Kg i.v., at the end of FST
Procedure: Forced Swim Test (FST) is an animal model used to assess antidepressant compounds in preclinical studies. The FST was performed similar to the method of Porsolt et al. with modifications (Porsolt R D, Bertin A, Jalfre M. Behavioral despair in mice: a primary screening test for antidepressants. Arch Int Pharmacodyn Thér 1977; 229:327-36). In this paradigm, mice are forced to swim in an inescapable cylinder filled with water. Under these conditions, mice will initially try to escape and eventually develop immobility behavior; this behavior is interpreted as a passive stress-coping strategy or depression-like behavior. Swim tanks were positioned inside a box made of plastic. Each tank was separated from each other by opaque plastic sheets to the height of cylinders. Three mice were subjected to test at a time. Swim sessions were conducted for 6 min by placing mice in individual glass cylinders (46 cm height×20 cm diameter) containing water (20-cm deep, maintained at 24-25° C.). […] The duration of immobility was evaluated during the total 6 min of the test and expressed as duration (sec) of immobility. […] All testing sessions were recorded with a video camera (Sony Handicam, Model: DCR-HC38E; PAL) and scoring was done using the Forced Swim Scan, Version 2.0 software (Clever Systems Inc., Reston, Va., USA; see Hayashi E, Shimamura M, Kuratani K, Kinoshita M, Hara H. Automated experimental system capturing three behavioral components during murine forced swim test. Life Sci. 2011 Feb. 28; 88(9-10):411-7 and Yuan P, Tragon T, Xia M, Leclair C A, Skoumbourdis A P, Zheng W, Thomas C J, Huang R, Austin C P, Chen G, Guitart X. Phosphodiesterase 4 inhibitors enhance sexual pleasure-seeking activity in rodents. […] For NCE testing: Test compound was administered in mice 15 min before swim session by i.v. route and immobility time was recorded for next 6 min. […] The NR2B receptor occupancy was determined as reported above and was determined to be 73%. […] The NR2B receptor occupancy was determined to be 79%.

[2] = Drug levels in blood plasma and brain tissue by mass spectroscopy (ex vivo occupancy study); conditions: male, CD-1, mouse, iv, mice, 3 mg/Kg i.v., 15 minutes post-dosing
Procedure: as §1, §2

[3] = target: T3, NR2B-subtype NMDA receptors (Rattus norvegicus, UniProt P35439+Q00960); experiment: Radioligand binding assay (3H Ro 25-6981 competition, rat forebrain membranes); conditions: 3H Ro 25-6981 4 nM
T3 construct: For membrane preparation, rat forebrains were thawed on ice; from tissue; host or cells: rat forebrain membrane homogenate (Sprague Dawley, Harlan)
Procedure: For membrane preparation, rat forebrains were thawed on ice for 20 minutes in homogenization buffer composed of 50 mM KH2PO4 (pH adjusted to 7.4 with KOH), 1 mM EDTA, 0.005% Triton X 100 and protease inhibitor cocktail (Sigma Aldrich). Thawed brains were homogenized using a Dounce homogenizer and centrifuged at 48000×g for 20 min. The pellet was resuspended in cold buffer and homogenized again using a Dounce homogenizer. Subsequently, the homogenate was aliquoted, snap-frozen and stored at −80° C. for not more than 3-4 months.
To perform the competition binding assay, thawed membrane homogenate was added to each well of a 96-well plate (20 μg/well). The experimental compounds were serially diluted in 100% DMSO and added to each row of the assay plate to achieve desired compound concentrations, keeping the DMSO concentration in the assay plate at 1.33% of the final reaction volume. Next, ^3H Ro 25-6981 (4 nM) was added to the assay plate. After incubation for 1 hr at room temperature, the membrane bound radioligand was harvested on to GF/B filter plates (treated with 0.5% PEI for 1 hr at room temperature). The filter plates were dried at 50° C. for 20 mins, incubated with microscint 20 for 10 minutes and finally, the counts were read on TopCount (Perkin Elmer).

[4] = plasma, read-out: Drug levels in the plasma
[5] = brain (homogenized forebrain tissue), read-out: drug levels in the homogonized brain tissue
[6] = plasma, read-out: Drug levels in the blood plasma

T2 sequence (Q01097 27-1482, other chains not shown): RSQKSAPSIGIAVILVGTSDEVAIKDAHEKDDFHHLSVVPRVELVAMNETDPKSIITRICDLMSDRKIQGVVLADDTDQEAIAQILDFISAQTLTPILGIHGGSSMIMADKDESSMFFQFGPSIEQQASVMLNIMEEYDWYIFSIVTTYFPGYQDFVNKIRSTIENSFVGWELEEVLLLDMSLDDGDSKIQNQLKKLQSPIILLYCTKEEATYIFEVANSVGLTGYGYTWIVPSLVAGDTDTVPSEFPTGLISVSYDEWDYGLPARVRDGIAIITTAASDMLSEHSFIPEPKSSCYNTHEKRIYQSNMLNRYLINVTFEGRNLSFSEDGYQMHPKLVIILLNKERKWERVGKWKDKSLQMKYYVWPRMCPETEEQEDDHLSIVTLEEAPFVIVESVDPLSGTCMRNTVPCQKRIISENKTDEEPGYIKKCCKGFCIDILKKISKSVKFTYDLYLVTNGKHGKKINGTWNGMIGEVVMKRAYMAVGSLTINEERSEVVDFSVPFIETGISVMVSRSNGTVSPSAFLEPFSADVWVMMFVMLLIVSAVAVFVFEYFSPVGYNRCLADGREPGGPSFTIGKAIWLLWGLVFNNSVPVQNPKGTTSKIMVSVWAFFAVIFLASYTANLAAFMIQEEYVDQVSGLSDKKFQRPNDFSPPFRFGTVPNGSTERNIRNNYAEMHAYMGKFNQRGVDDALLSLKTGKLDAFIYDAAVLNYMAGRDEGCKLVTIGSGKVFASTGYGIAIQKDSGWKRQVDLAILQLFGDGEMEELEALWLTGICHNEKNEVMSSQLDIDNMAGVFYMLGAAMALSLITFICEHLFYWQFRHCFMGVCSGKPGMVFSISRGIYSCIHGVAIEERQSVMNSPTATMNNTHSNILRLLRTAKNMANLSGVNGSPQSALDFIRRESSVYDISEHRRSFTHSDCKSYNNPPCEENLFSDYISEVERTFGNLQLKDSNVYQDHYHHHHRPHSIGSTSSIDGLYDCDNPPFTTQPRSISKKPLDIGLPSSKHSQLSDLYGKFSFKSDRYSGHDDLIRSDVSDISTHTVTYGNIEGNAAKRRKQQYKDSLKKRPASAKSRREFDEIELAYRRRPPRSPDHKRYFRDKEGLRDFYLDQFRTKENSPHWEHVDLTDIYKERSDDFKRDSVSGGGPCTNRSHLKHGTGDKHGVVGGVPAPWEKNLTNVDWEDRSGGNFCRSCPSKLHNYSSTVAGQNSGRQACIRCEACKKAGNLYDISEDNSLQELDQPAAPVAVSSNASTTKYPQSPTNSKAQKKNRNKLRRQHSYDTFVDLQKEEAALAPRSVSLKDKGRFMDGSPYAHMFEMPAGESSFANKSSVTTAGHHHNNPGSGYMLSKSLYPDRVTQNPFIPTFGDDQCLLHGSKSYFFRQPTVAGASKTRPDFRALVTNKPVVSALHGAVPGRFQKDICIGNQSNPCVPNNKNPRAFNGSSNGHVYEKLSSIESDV
T1 sequence (Q12809 whole entry): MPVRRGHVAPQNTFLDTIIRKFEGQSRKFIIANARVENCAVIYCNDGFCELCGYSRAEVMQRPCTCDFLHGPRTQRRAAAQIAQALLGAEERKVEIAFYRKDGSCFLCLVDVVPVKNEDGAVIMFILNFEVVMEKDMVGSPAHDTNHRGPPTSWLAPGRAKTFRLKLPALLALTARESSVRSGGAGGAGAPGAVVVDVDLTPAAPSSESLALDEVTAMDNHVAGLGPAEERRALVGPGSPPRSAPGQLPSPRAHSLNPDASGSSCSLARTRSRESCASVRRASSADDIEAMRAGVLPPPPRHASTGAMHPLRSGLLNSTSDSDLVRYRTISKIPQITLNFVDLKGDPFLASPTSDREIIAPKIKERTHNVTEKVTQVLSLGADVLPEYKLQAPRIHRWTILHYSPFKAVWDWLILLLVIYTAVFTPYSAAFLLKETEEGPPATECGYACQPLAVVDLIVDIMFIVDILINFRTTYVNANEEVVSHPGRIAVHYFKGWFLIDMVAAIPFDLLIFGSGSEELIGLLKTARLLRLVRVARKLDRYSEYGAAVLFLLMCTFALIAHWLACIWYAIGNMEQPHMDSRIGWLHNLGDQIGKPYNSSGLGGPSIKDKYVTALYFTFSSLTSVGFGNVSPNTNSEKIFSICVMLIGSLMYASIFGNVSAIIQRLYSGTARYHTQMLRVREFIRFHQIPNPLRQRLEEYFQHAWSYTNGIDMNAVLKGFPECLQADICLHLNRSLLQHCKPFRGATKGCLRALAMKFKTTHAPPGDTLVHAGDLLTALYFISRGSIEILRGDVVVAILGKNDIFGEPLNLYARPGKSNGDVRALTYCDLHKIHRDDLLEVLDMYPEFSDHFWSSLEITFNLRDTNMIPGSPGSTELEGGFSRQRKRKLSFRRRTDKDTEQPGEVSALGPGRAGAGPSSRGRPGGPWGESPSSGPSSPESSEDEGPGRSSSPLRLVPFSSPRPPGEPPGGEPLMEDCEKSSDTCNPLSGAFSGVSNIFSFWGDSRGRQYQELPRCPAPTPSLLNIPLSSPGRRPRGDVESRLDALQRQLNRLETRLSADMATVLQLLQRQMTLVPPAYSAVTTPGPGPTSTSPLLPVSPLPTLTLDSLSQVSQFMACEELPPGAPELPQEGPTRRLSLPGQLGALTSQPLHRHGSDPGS
T3 sequence (Q00960 27-1482, other chains not shown): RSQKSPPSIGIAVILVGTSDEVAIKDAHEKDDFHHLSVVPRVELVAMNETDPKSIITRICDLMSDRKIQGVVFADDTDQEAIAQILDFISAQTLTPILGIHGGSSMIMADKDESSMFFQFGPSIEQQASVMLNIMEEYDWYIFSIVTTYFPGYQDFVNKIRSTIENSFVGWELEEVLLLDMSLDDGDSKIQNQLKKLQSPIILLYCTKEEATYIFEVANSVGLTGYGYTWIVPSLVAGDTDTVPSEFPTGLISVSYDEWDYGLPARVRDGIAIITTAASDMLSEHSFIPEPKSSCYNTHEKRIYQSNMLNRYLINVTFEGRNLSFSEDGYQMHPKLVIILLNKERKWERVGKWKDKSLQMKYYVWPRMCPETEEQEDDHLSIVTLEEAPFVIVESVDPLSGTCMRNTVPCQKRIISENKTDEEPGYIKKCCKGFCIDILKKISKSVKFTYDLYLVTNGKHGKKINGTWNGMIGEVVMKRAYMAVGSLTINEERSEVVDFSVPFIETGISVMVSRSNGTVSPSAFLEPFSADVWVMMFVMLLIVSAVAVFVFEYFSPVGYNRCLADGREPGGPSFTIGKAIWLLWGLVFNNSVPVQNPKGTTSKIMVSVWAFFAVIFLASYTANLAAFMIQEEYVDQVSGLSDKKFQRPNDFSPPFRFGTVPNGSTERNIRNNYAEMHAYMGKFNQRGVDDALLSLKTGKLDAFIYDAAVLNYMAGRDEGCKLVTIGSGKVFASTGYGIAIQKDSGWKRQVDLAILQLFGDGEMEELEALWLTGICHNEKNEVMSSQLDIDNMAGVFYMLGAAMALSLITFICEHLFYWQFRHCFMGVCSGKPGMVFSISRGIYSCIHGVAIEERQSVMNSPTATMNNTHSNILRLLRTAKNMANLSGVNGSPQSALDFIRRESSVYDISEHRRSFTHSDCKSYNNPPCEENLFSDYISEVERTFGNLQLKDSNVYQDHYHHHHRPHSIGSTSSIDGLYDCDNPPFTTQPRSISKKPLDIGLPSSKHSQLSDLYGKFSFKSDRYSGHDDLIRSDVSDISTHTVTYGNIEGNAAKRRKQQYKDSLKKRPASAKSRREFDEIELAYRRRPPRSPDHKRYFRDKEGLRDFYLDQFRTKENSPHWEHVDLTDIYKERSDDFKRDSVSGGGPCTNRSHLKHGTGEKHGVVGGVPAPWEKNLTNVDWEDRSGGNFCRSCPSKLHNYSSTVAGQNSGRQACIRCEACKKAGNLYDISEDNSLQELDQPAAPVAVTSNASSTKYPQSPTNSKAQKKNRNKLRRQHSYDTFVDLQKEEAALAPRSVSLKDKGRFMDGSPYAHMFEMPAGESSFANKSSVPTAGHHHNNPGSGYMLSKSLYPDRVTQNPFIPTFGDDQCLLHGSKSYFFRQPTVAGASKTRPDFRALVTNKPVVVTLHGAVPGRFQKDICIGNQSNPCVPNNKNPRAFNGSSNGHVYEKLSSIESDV

| Compound | IC50 (hERG channels) | immobility time (mice) | receptor occupancy at 3 mg/kg (NR2B-subtype receptors) | receptor occupancy at 1 mg/kg (NR2B-subtype receptors) | concentration at 21 min ([1]; brain, read-out: Drug levels in the brain) | concentration at 21 min [1, 4] | concentration at 15 min [2, 5] | concentration at 15 min [2, 6] | Ki [3] |
| --- | --- | --- | --- | --- | --- | --- | --- | --- | --- |
| Cc1ccc(CN2CC[C@@H](N3CC[C@@H](c4ccc(O)cc4)[C@H](F)C3)C2=O)cc1 [example 1, (R)-3-((3S,4S)-3-fluoro-4-(4-hydroxyphenyl)piperidin-1-yl)-1-(4-methylbenzyl)pyrrolidin-2-one] | 28 µM | statistically significant decrease in immobility time | 95% | 73% | 749 nM | 268 nM | 1980 nM | 1110 nM |  |
| O=C1[C@H](N2CCC(c3ccc(O)cc3)CC2)CCN1Cc1ccc(F)cc1 (single isomer, unassigned) [example 8] |  |  | 96% |  |  |  | 900 nM | 570 nM | 0.0014 µM |
| O=C1[C@H](N2CC[C@@H](c3ccc(O)cc3)[C@H](F)C2)CCN1Cc1ccc(C(F)F)cc1 (single isomer, unassigned) [example 6] | 13.5 µM | statistically significant decrease in immobility time | 97% | 79% |  | 360 nM | 2200 nM | 1800 nM | 0.004 µM |
